# Like-named read-outs stand apart in the source and are kept apart here.
# What was measured:
# [1] = target: T1, RORγ ligand binding domain (LBD) (Homo sapiens, UniProt P51449); assay: TR-FRET Activity Assay (ligand sensing, RORγ-LBD / coactivator peptide interaction, LANCE); assay type: biochemical
# T1 construct: made in house; host or cells: E. coli BL-21 (BL3), vector pDEST15
# T1 sequence (P51449 269-508 limits assumed): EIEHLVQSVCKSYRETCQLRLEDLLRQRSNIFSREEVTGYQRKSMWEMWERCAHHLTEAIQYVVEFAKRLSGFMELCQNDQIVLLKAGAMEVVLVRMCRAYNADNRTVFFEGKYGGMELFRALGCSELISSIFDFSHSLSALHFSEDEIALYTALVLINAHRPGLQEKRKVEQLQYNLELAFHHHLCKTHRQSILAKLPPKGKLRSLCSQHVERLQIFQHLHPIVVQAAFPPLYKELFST
# RORγ = target: T2, RORγ (UniProt P51449); assay: RORγ Gal4 Reporter Gene Assay in 293T cells (firefly and renilla luciferase); assay type: cell-based, human
# T2 sequence (P51449 1-518): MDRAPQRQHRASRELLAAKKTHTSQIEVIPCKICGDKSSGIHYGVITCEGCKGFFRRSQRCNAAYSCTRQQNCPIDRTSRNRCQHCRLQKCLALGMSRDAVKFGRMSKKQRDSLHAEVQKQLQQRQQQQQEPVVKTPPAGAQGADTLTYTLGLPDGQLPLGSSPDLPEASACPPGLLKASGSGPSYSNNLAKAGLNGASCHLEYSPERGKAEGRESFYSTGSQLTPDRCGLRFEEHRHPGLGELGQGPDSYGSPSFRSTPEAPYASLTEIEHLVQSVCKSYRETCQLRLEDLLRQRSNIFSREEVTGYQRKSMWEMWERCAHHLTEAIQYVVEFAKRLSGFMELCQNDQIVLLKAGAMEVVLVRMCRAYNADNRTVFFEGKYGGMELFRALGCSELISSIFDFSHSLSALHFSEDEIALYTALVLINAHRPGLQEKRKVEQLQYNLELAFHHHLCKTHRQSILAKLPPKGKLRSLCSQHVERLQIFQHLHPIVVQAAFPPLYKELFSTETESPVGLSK
# [2] = first value of the cell FRET/FF/REN, TR-FRET activity assay, read-out: pIC50 (FRET) (converted)
# [3] = second value of the cell, Gal4 reporter gene assay in 293T cells, firefly luciferase
# [4] = third value of the cell, Gal4 reporter gene assay in 293T cells, renilla normalised luciferase
structure (smiles),measurement,setting,value
Cc1c(C(=O)NC2COC2)cc(-c2cc(C3(C)CC3)c3c(c2)C2(CCO3)CC2)n1CC1CCCCC1 [1/42],IC50,[1]; [2],251 nM
same,pIC50 (FF),RORγ; [3],7.5
same,pIC50 (REN),RORγ; [4],7.6
Cc1c(C(=O)NC2CCOCC2)cc(-c2cc(C(C)(C)C)cc(C3(C)CC3)c2)n1CC1CCCCC1 [1/84],IC50,[1],158 nM
same,pIC50 (FF),RORγ,6.8/7.6/7.6
same,pIC50 (REN),RORγ,6.8/7.6/7.6
Cc1c(C(=O)NCC2CCS(=O)(=O)CC2)cc(-c2cc(C(C)(C)O)cc(C3(C)CC3)c2)n1CC1CCCCC1 [17/320],IC50,[1],1580 nM
same,pIC50 (FF),RORγ,5.8/7.3/7.3
same,pIC50 (REN),RORγ,5.8/7.3/7.3
Cc1c(C(=O)NC2CCOCC2)cc(-c2ccc(S(=O)(=O)NC(C)C)c(C(F)(F)F)c2)n1CC1CCCCC1 [17/112],IC50,[1]; [2],316 nM
same,pIC50 (FF),RORγ; [3],7.4
same,pIC50 (REN),RORγ; [4],7.5
Cc1c(C(=O)NCC(C)(C)O)cc(-c2cc(C(C)(C)C)nc3ccccc23)n1CC1CCCCC1 [17/366],IC50,[1]; [2],5010 nM
same,pIC50 (FF),RORγ; [3],6.6
same,pIC50 (REN),RORγ; [4],6.3
Cc1c(C(=O)NCC2(S(C)(=O)=O)CCOCC2)cc(-c2cc(C(C)(C)C)c3c(c2)C2(CCO3)CC2)n1CC1CCCCC1 [17/11],IC50,[1],200 nM
same,pIC50 (FF),RORγ,6.7/7.2/7.2
same,pIC50 (REN),RORγ,6.7/7.2/7.2
Cc1c(C(=O)NC2CCOCC2)cc(-c2ccc(C(=O)NC(C)(C)C)c(C(F)(F)F)c2)n1CC1CCCCC1 [6/8],IC50,[1],10000 nM
same,pIC50 (FF),RORγ,5.0/6.8/7.3
same,pIC50 (REN),RORγ,5.0/6.8/7.3
Cc1c(C(=O)NCC(C)(C)O)cc(-c2cc(OC(F)(F)F)cc(C(=O)NC(C)(C)C)c2)n1CC1CCCCC1 [17/349],IC50,[1]; [2],631 nM
same,pIC50 (FF),RORγ; [3],6.8
same,pIC50 (REN),RORγ; [4],6.8
Cc1c(C(=O)NC2CCOCC2)cc(-c2ccc(S(=O)(=O)NC(C)(C)C)c(C(F)(F)F)c2)n1CC1CC(C)C1 (stereo not drawn) [17/177],IC50,[1]; [2],158 nM
same,pIC50 (FF),RORγ; [3],7.3
same,pIC50 (REN),RORγ; [4],7.4
Cc1c(C(=O)N2CCC(C(=O)O)CC2)cc(-c2cc(C(C)(C)C)c3c(c2)C2(CCO3)CC2)n1CC1CCCCC1 [17/53],IC50,[1]; [2],1580 nM
same,pIC50 (FF),RORγ; [3],6.9
same,pIC50 (REN),RORγ; [4],6.9
Cc1c(C(=O)N2CC2CO)cc(-c2cc(C(C)(C)C)cc(C(C)(C)C)c2)n1CC1CCCCC1 (stereo not drawn) [17/45],IC50,[1],1000 nM
same,pIC50 (FF),RORγ,6.0/6.5/6.4
same,pIC50 (REN),RORγ,6.0/6.5/6.4
Cc1c(C(=O)NCC(C)(C)O)cc(-c2cc(C(C)(C)C)cc(C(C)(C)C)c2OC(F)F)n1CC1CCCCC1 [17/191],IC50,[1],1260 nM
same,pIC50 (FF),RORγ,5.9/7.0/6.9
same,pIC50 (REN),RORγ,5.9/7.0/6.9
Cc1c(C(=O)NCC(C)(C)O)cc(-c2cc(C(C)(C)C)c3c(c2)C(C)(C)CO3)n1CC1CCCCC1 [17/86],IC50,[1]; [2],316 nM
same,pIC50 (FF),RORγ; [3],7.1
same,pIC50 (REN),RORγ; [4],7.1
Cc1c(C(=O)N[C@H]2CCOC2)cc(-c2cc(C(C)(C)C)c3c(c2)C2(CCO3)CC2)n1CC1CCCCC1 [1/95],IC50,[1]; [2],158 nM
same,pIC50 (FF),RORγ; [3],7.0
same,pIC50 (REN),RORγ; [4],7.1
Cc1c(C(=O)NCC2(C(=O)O)CC2)cc(-c2cc(C(C)(C)C)c3c(c2)C2(CCO3)CC2)n1CC1CCCCC1 [17/51],IC50,[1]; [2],1580 nM
same,pIC50 (FF),RORγ; [3],6.7
same,pIC50 (REN),RORγ; [4],6.7
Cc1c(C(=O)NCc2nc(C(N)=O)co2)cc(-c2cc(C(C)(C)C)c3c(c2)C2(CCO3)CC2)n1CC1CCCCC1 [17/17],IC50,[1],794 nM
same,pIC50 (FF),RORγ,6.1/6.3/6.4
same,pIC50 (REN),RORγ,6.1/6.3/6.4
Cc1c(C(=O)NCC(C)(C)O)cc(-c2cc(C(C)(C)C)cc(S(=O)(=O)N(C)C(C)(C)C)c2)n1CC1CCCCC1 [9/3],IC50,[1]; [2],316 nM
same,pIC50 (FF),RORγ; [3],7.1
same,pIC50 (REN),RORγ; [4],7.1
Cc1c(C(=O)NC2CCOCC2)cc(-c2ccc(S(=O)(=O)NC(C)(C)C)c(C(F)(F)F)c2Cl)n1CC1CCCCC1 [17/288],IC50,[1]; [2],398 nM
same,pIC50 (FF),RORγ; [3],7.3
same,pIC50 (REN),RORγ; [4],7.3
Cc1c(C(=O)NCC(C)(C)C(=O)O)cc(-c2cc(C(C)(C)C)nc(C(C)(C)C)n2)n1CC1CCCCC1 [17/353],IC50,[1]; [2],2000 nM
same,pIC50 (FF),RORγ; [3],6.8
same,pIC50 (REN),RORγ; [4],6.8
Cc1cc(-c2cc(C(=O)NC3CCOCC3)c(C)n2CC2CCCCC2)cc(C(F)(F)F)c1S(=O)(=O)NC(C)(C)C [17/232],IC50,[1],794 nM
same,pIC50 (FF),RORγ,6.1/6.8/7.0
same,pIC50 (REN),RORγ,6.1/6.8/7.0
Cc1c(C(=O)NCCC(C)(C)C(=O)O)cc(-c2cc(C(C)(C)O)cc(C(F)(F)F)c2)n1CC1CCCCC1 [17/308],IC50,[1]; [2],6310 nM
same,pIC50 (FF),RORγ; [3],6.5
same,pIC50 (REN),RORγ; [4],6.4
CCNC(=O)c1cc(-c2ccc(S(=O)(=O)NC(C)(C)C)c(C(C)(C)C)c2)n(CC2CCCCC2)c1C [17/98],IC50,[1]; [2],316 nM
same,pIC50 (FF),RORγ; [3],6.8
same,pIC50 (REN),RORγ; [4],6.9
Cc1c(C(=O)N[C@H]2CC[C@H](C(=O)O)CC2)cc(-c2ccc(S(=O)(=O)NC(C)(C)C)c(C(F)(F)F)c2)n1CC1CCCCC1 [17/223],IC50,[1]; [2],398 nM
same,pIC50 (FF),RORγ; [3],7.1
same,pIC50 (REN),RORγ; [4],7.2
Cc1c(C(=O)NCC2(C(=O)O)CCOCC2)cc(-c2ccc(S(=O)(=O)NC(C)(C)C)c(C(F)(F)F)c2)n1CC1CCCCC1 [17/201],IC50,[1]; [2],794 nM
same,pIC50 (FF),RORγ; [3],5.7
same,pIC50 (REN),RORγ; [4],5.7
Cc1c(C(=O)NCCCCCC(=O)O)cc(-c2cc(C(C)(C)C)cc(C(C)(C)C)c2)n1CC1CCCCC1 [1/72],IC50,[1]; [2],1000 nM
same,pIC50 (FF),RORγ; [3],7.1
same,pIC50 (REN),RORγ; [4],7.1
CCn1cc(-c2ccc(-c3cc(C(=O)NC4CCOCC4)c(C)n3CC3CCCCC3)cc2C(C)(C)C)cn1 [26/3],IC50,[1]; [2],794 nM
same,pIC50 (FF),RORγ; [3],6.6
same,pIC50 (REN),RORγ; [4],6.8
Cc1c(C(=O)NCC(C)(C)O)cc(-c2cc(C(C)(C)O)cc(C3(C)CC3)c2)n1CC1CCCCC1 [17/313],IC50,[1],1000 nM
same,pIC50 (FF),RORγ,6.0/6.8/6.8
same,pIC50 (REN),RORγ,6.0/6.8/6.8
Cc1c(C(=O)NC2CCOCC2)cc(-c2cc(C(C)(C)O)cc3ccccc23)n1CC1CCCCC1 [17/185],IC50,[1],501 nM
same,pIC50 (FF),RORγ,6.3/6.4/6.2
same,pIC50 (REN),RORγ,6.3/6.4/6.2
Cc1c(C(=O)N[C@H]2C[C@@H](C(=O)O)C2)cc(-c2cc(C(C)(C)C)c3c(c2)C2(CCO3)CC2)n1CC1CCCCC1 [17/56],IC50,[1]; [2],12600 nM
same,pIC50 (FF),RORγ; [3],6.4
same,pIC50 (REN),RORγ; [4],6.4
Cc1c(C(=O)N2CC3(CCOCC3)C2)cc(-c2ccc(S(=O)(=O)NC(C)(C)C)c(C(F)(F)F)c2)n1CC1CCCCC1 [17/211],IC50,[1]; [2],501 nM
same,pIC50 (FF),RORγ; [3],8.0
same,pIC50 (REN),RORγ; [4],8.0
Cc1c(C(=O)NCC2(O)CCSCC2)cc(-c2cc(C(C)(C)C)c3c(c2)C2(CCO3)CC2)n1CC1CCCCC1 [17/37],IC50,[1]; [2],1260 nM
same,pIC50 (FF),RORγ; [3],7.1
same,pIC50 (REN),RORγ; [4],7.1
Cc1c(C(=O)NCCc2noc(=O)[nH]2)cc(-c2ccc(S(=O)(=O)NC(C)(C)C)c(C(F)(F)F)c2)n1CC1CCCCC1 [17/332],IC50,[1]; [2],200 nM
same,pIC50 (FF),RORγ; [3],6.4
same,pIC50 (REN),RORγ; [4],6.4
Cc1c(C(=O)NC2CCOCC2)cc(-c2cc(C(F)(F)F)cc(C3(C)CC3)c2)n1CC1CCCCC1 [17/297],IC50,[1]; [2],126 nM
same,pIC50 (FF),RORγ; [3],7.2
same,pIC50 (REN),RORγ; [4],7.4
Cc1c(C(=O)NCCc2noc(=O)[nH]2)cc(-c2ccc(S(=O)(=O)NC(C)(C)C)c(C(C)(C)O)c2)n1CC1CCCCC1 [17/333],IC50,[1]; [2],398 nM
same,pIC50 (FF),RORγ; [3],6.4
same,pIC50 (REN),RORγ; [4],6.3
Cc1c(C(=O)NC[C@@H]2CCCO2)cc(-c2cc(C(C)(C)C)c3c(c2)C2(CCO3)CC2)n1CC1CCCCC1 [17/6],IC50,[1]; [2],251 nM
same,pIC50 (FF),RORγ; [3],6.4
same,pIC50 (REN),RORγ; [4],6.5
